Test results from patent US6534637B2, “Synthesis of chlorophenol red glucuronic acid” (Beckman Coulter, Inc., priority 2001, dated 2003).

Key:
[1] = target: T1, E. coli α-D-Glucuronidase (Sigma, G7896) (Escherichia coli, UniProt P05804); experiment: Sensitivity of GUD assay (reaction rates by OD, spectrophotometric); assay type: biochemical
T1 construct: purchased Sigma G7896
Procedure: E. coli […] (Sigma, G7896) was diluted in PBS buffer containing 10 mM DTT and 0.1% Triton X-100 and either substrate p-nitrophenol glucuronide (Sigma N1627) or phenolsulphonphthaleinyl (or chlorophenol red) glucuronide of the present invention. The final concentration of each substrate was1 mM. The final concentration of GUD was 60 pM, 125 pM, 250 pM, 500 pM, or 1000 pM. Readings of Optical Density (OD) were measured at 415 nm for assay with p-nitrophenol glucuronide and at 574 nm for assay with chlorophenol red glucuronide. OD measurements were conducted over 30 minutes at 37° C. in a Beckman DU70 spectrophotometer and the reaction rates were determined in mOD/min. […] Therefore, the sensitivity of the GUD assay utilizing a substrate of the present invention as compared to the sensitivity of GUD assay with a conventional substrate.

[2] = target: T2, purified β-glucuronidase (Sigma G-7896) (Escherichia coli, UniProt P05804); experiment: Enzyme assay: suitability of the substrate for detecting β-glucuronidase; assay type: biochemical, E. coli; conditions: 50 MM sodium phosphate buffer, pH 7.0, 10 mM β-mercaptoethanol, 0.1% Triton X-100
T2 construct: purchased Sigma G-7896
Procedure: The suitability of the chlorophenol red β-D-glucuronic acid substrate (IVA) for detecting β-glucuronidase in a sample was tested following the procedure of Jefferson et al., PNAS (1986) Vol. 83, 8447-8451. The solid product (IVA) was dissolved in water to a final concentration of approximately 100 mM (red-orange product). An aliquot was added to 50 μM of purified β-glucuronidase (Sigma G-7896) in 50 MM sodium phosphate buffer, pH 7.0, 10 mM β-mercaptoethanol and 0.1% Triton X-100.

[3] = Solubility of the GUD substrates (statement); assay type: physicochemical; conditions: for liquid homogeneous assay formats

T1 sequence (P05804 whole entry): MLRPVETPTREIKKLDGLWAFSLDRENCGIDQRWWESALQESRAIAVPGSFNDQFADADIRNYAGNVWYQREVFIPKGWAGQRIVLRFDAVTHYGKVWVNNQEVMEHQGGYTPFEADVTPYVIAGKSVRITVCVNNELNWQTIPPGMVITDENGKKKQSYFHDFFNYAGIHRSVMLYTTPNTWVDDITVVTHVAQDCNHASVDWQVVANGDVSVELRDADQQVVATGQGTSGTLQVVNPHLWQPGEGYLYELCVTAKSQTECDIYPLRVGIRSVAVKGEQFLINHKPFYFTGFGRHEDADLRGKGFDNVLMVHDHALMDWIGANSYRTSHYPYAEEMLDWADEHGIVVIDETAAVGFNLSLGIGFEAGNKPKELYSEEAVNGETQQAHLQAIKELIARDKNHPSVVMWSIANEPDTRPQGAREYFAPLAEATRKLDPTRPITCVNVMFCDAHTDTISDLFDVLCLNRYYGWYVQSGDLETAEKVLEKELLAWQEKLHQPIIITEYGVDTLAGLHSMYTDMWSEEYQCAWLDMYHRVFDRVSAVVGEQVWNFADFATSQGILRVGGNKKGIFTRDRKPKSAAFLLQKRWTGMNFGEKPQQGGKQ
T2 sequence (P05804 whole entry): as above

O=C1C=C/C(=C(/c2ccc(OC3OC(C(=O)O)[C@@H](O)C(O)C3O)c(Cl)c2)c2ccccc2S(=O)(=O)[O-])C=C1Cl.[Na+] (stereo partly drawn) [IVA, Chlorophenol Red β-D-Glucuronic Acid]
Reaction rate (mOD/min) relative to the nitrophenol-glucuronide substrate ([1]; each substrate 1 mM, GUD 60-1000 pM, 37° C., 30 minutes, OD at 574 nm vs 415 nm): 5.76 fold | Signal intensity relative to nitro-phenol glucuronide (FIG. 1) ([1]; identical amounts of GUD added to each substrate): about six-fold | Suitability as substrate: appearance of a violet product with absorbance maximum at 575 nm [2]: suitable for the detection of β-glucuronidase | Solubility [3]: highly soluble
